{"source": "paper PMC6680430", "about": "“Quantitative Prediction of Human Pharmacokinetics and Pharmacodynamics of CKD519, a Potent Inhibitor of Cholesteryl Ester Transfer Protein (CETP)” (Pharmaceutics, 2019)", "key": {"[1]": {"experiment": "animal full PK study in hamsters (NCA and PK model)", "assay_type": "in vivo", "conditions": "hamster; for Tmax: median (range)", "protocol": "Animal PK data for analysis were collected from preclinical studies performed at ChongKunDang laboratory. All animal experiments were performed with relevant guidelines and regulations, and the protocol was approved by the Institutional Animal Care and Use Committee (IACUC) of ChongKunDang (Approval number: S-13-015). A single dose of CKD519 was administered either orally or via intravenous infusion to hamsters (intravenous dose of 0.5 mg/kg, oral dose of 3, 15, or 45 mg/kg, n = 30); rats (intravenous dose of 0.5 mg/kg, oral dose of 5, 15, or 45 mg/kg, n = 20); and monkeys (intravenous dose of 0.1 mg/kg, oral dose of 1, 5, or 30 mg/kg, n = 16). The identical solution was administered to all animal species in the fasted state. Plasma CKD519 concentration was measured before and at 0.083, 0.25, 0.5, 1, 2, 4, 8, and 24 h after administration in hamsters and rats, and before and at 0.083, 0.25, 0.5, 1, 2, 4, 6, 8, 12, 24, 48, and 72 h after administration in monkeys. Two hamsters given identical doses were sampled in a rotating manner.\nThe plasma samples were stored at −70 °C before the analysis and were thawed at room temperature. […] A sensitive, specific, and validated liquid chromatography coupled with a tandem mass spectrometer (HPLC-MS/MS) assay was used for the determination of CKD519 concentration in animal plasma samples. A structural analogue of CKD519 was used as the internal standard. The validated working range was from 2 ng/mL (the lower limit of quantification, LLOQ) to 20,000 ng/mL. Quality control (QC) samples were analyzed together with the study samples. Intra-day and inter-day precision and accuracy results were within the acceptance criteria based on the Ministry of Food and Drug Safety (MFDS) guidelines. An exploratory data analysis was performed through non-compartmental analysis (NCA) using the NonCompart package (developed by Bae, version 0.4.4) in R (version 3.5.1, The R Foundation, Vienna, Austria).\nUsing the PK data from each species, nonlinear mixed-effect modeling was conducted using NONMEM (version 7.4, Icon Development Solutions, Ellicott City, MD, USA) reflecting the clues from NCA. The first-order conditional estimation method with interaction (FOCE-I) was used whenever applicable. The adequacy of the model was checked using changes in the objective function value (OFV), visual inspection of various diagnostic plots (goodness-of-fit (GOF) plot), and methods of visual predictive check (VPC) and bootstrap were used for the diagnostics on the model stability and parameter reliability. The significance of model improvement was evaluated using a likelihood-ratio test (LRT). In the nested models, the result was considered statistically significant if the OFV decreased more than 3.84 (p-value < 0.05, degree of freedom (df) = 1) and 5.99 (p-value < 0.05, df = 2). The degree of freedom is defined as the gap of the numbers of parameters of the two subsequent models that are being compared. In the case of non-nested models, the Akaike information criteria (AIC) value was used to select the model that best described the data. R (version 3.5.1., R Foundation for Statistical Computing, Vienna, Austria) was used for data preparation, NCA, graphical analysis, model diagnostics, and statistical summaries.\nInitially, a two-compartment model with first-order absorption was developed to describe the biphasic curve, and several absorption structures (e.g., zero-order with absorption lag time, Weibull-type absorption) were applied to the base model if needed. The change in absolute bioavailability (F) by dose levels was also considered. […]"}, "[2]": {"experiment": "human PK parameter prediction by allometric scaling", "conditions": "60 kg human", "source_text": "The volume parameters (Vc, Vp) estimated from the PK models for three different species were correlated through simple allometric scaling (=Body weight-dependent allometry) in the PK model fitted to the overall data from all species. This method is based on the power–law function, which can be represented as follows:Y = a × BW^b,(2) where Y represents the PK parameter of interest from each animal; BW represents the average body weight of each species from the relevant in vivo studies; and a and b are the allometric coefficient and exponent of the equation, respectively.\nFor the allometric scaling of the clearance parameters (CL, Q) in the same model, physiological parameters such as brain weight (BrW) or maximum lifespan potential (MLP) of each species were incorporated if necessary. To address the uncertainty, two allometric relationships were selected as the final models, and two sets of human PK parameters were predicted: one from the allometry of best fit and the other from the most conventional simple allometry. The appropriateness of the extrapolated human PK parameter values was assessed by comparing them with those of the comparator. Since allometric scaling is not generally recommended for the absorption parameter, human absorption parameters were determined by the final estimates from the overall PK model instead of the allometric method.\nAs mentioned in Section 2.4, predicted human (with the body weight of 60 kg) PK parameter values were obtained using the simple and BrW-corrected (the best fit) allometric relationships and the final estimates for allometric coefficient and exponent in overall PK models."}, "[3]": {"test_system": "CETP", "experiment": "human PK/PD modeling and simulation of CETP inhibition", "procedure": "The efficacious dose was defined as the dose accomplishing the threshold in ≥50% of the population, which was determined using the median. Thus, the variability of the parameters was not incorporated in the simulation."}, "[4]": {"experiment": "preclinical in vitro and in vivo efficacy studies (off-target effects)"}, "[5]": {"conditions": "PK model, final estimate (%RSE)"}, "[6]": {"conditions": "intravenous 0.5 mg/kg, NCA, mean ± SD"}, "[7]": {"conditions": "two-compartment PK model, final estimate (%RSE)"}, "[8]": {"conditions": "brain weight-corrected allometry"}}, "note": "pIC50: −log10 of the molar value.", "data": [{"smiles": "COc1cc(F)c(C(C)C)cc1C1=C(CN2C(=O)O[C@H](c3cc(C(F)(F)F)cc(C(F)(F)F)c3)[C@@H]2C)CC(C)(C)CC1", "note": "[CKD519]", "values": [{"measurement": "α (scale parameter of Weibull absorption)", "setting": "[1]; [5]", "result": "4.20 (4.14%)"}, {"measurement": "β (shape parameter of Weibull absorption)", "setting": "[1]; [5]", "result": "2.62 (4.47%)"}, {"measurement": "AUClast", "setting": "[1]; [6]", "result": "8760 ± 635", "unit": "ng·h/mL"}, {"measurement": "V/F * (V for intravenous)", "setting": "[1]; [6]", "result": "138 ± 89.9", "unit": "mL"}, {"measurement": "ke", "setting": "[1]; [6]", "result": "0.0616 ± 0.0446", "unit": "h⁻¹"}, {"measurement": "t1/2", "setting": "[1]; [6]", "result": "16.9 ± 14.1", "unit": "h"}, {"measurement": "Tmax", "setting": "[1]; intravenous 0.5 mg/kg, NCA", "result": "0.083 (0.083–0.083) h"}, {"measurement": "AUClast", "setting": "[1]; oral 3 mg/kg, NCA, mean ± SD", "result": "6140 ± 471", "unit": "ng·h/mL"}, {"measurement": "CL/F", "setting": "[1]; oral 3 mg/kg, NCA, mean ± SD", "result": "34.7 ± 3.08", "unit": "mL/h"}, {"measurement": "Cmax", "setting": "[1]; oral 3 mg/kg, NCA, mean ± SD", "result": "659 ± 89.3", "unit": "ng/mL"}, {"measurement": "V/F", "setting": "[1]; oral 3 mg/kg, NCA, mean ± SD", "result": "1570 ± 163", "unit": "mL"}, {"measurement": "ke", "setting": "[1]; oral 3 mg/kg, NCA, mean ± SD", "result": "0.0223 ± 0.00294", "unit": "h⁻¹"}, {"measurement": "t1/2", "setting": "[1]; oral 3 mg/kg, NCA, mean ± SD", "result": "31.5 ± 4.41", "unit": "h"}, {"measurement": "Tmax", "setting": "[1]; oral 3 mg/kg, NCA", "result": "3.5 (3–4) h"}, {"measurement": "AUClast", "setting": "[1]; oral 15 mg/kg, NCA, mean ± SD", "result": "18800 ± 4310", "unit": "ng·h/mL"}, {"measurement": "CL/F", "setting": "[1]; oral 15 mg/kg, NCA, mean ± SD", "result": "66.6 ± 20.1", "unit": "mL/h"}, {"measurement": "Cmax", "setting": "[1]; oral 15 mg/kg, NCA, mean ± SD", "result": "3250 ± 465", "unit": "ng/mL"}, {"measurement": "V/F", "setting": "[1]; oral 15 mg/kg, NCA, mean ± SD", "result": "2460 ± 162", "unit": "mL"}, {"measurement": "ke", "setting": "[1]; oral 15 mg/kg, NCA, mean ± SD", "result": "0.0268 ± 0.00613", "unit": "h⁻¹"}, {"measurement": "t1/2", "setting": "[1]; oral 15 mg/kg, NCA, mean ± SD", "result": "26.8 ± 5.23", "unit": "h"}, {"measurement": "Tmax", "setting": "[1]; oral 15 mg/kg, NCA", "result": "4 (3–4) h"}, {"measurement": "AUClast", "setting": "[1]; oral 45 mg/kg, NCA, mean ± SD", "result": "26700 ± 2330", "unit": "ng·h/mL"}, {"measurement": "CL/F", "setting": "[1]; oral 45 mg/kg, NCA, mean ± SD", "result": "145 ± 9.52", "unit": "mL/h"}, {"measurement": "Cmax", "setting": "[1]; oral 45 mg/kg, NCA, mean ± SD", "result": "3160 ± 614", "unit": "ng/mL"}, {"measurement": "V/F", "setting": "[1]; oral 45 mg/kg, NCA, mean ± SD", "result": "4330 ± 572", "unit": "mL"}, {"measurement": "ke", "setting": "[1]; oral 45 mg/kg, NCA, mean ± SD", "result": "0.0338 ± 0.00311", "unit": "h⁻¹"}, {"measurement": "t1/2", "setting": "[1]; oral 45 mg/kg, NCA, mean ± SD", "result": "20.7 ± 1.76", "unit": "h"}, {"measurement": "Tmax", "setting": "[1]; oral 45 mg/kg, NCA", "result": "4 (3–6) h"}, {"measurement": "CL", "setting": "[1]; [7]", "result": "0.00377 (7.40%) L/h"}, {"measurement": "Q", "setting": "[1]; [7]", "result": "0.00617 (10.3%) L/h"}, {"measurement": "Vc", "setting": "[1]; [7]", "result": "0.00472 (9.43%) L"}, {"measurement": "Vp", "setting": "[1]; [7]", "result": "0.0924 (9.78%) L"}, {"measurement": "CL, predicted human", "setting": "[2]; [8]", "result": 0.777, "unit": "L/h"}, {"measurement": "F 50, predicted human", "setting": "[2]; [8]", "result": 10.6}, {"measurement": "F max, predicted human", "setting": "[2]; [8]", "result": 0.192}, {"measurement": "Q, predicted human", "setting": "[2]; [8]", "result": 2.39, "unit": "L/h"}, {"measurement": "Vc, predicted human", "setting": "[2]; [8]", "result": 4.41, "unit": "L"}, {"measurement": "Vp, predicted human", "setting": "[2]; [8]", "result": 48.8, "unit": "L"}, {"measurement": "α, predicted human", "setting": "[2]; [8]", "result": 4.51}, {"measurement": "β, predicted human", "setting": "[2]; [8]", "result": 3.11}, {"measurement": "CL, predicted human", "setting": "[2]; simple allometry", "result": 0.264, "unit": "L/h"}, {"measurement": "F 50, predicted human", "setting": "[2]; simple allometry", "result": 10.6}, {"measurement": "F max, predicted human", "setting": "[2]; simple allometry", "result": 0.192}, {"measurement": "Q, predicted human", "setting": "[2]; simple allometry", "result": 1.17, "unit": "L/h"}, {"measurement": "Vc, predicted human", "setting": "[2]; simple allometry", "result": 3.29, "unit": "L"}, {"measurement": "Vp, predicted human", "setting": "[2]; simple allometry", "result": 49.7, "unit": "L"}, {"measurement": "α, predicted human", "setting": "[2]; simple allometry", "result": 4.51}, {"measurement": "β, predicted human", "setting": "[2]; simple allometry", "result": 3.11}, {"measurement": "pIC50", "setting": "[3]; comparator in vivo IC50 22 nM scaled by in vitro potency ratio, read-out: assumed in vivo IC50", "result": 7.43}, {"measurement": "IC50 reflected in the PD model", "setting": "[3]; corresponds to 22 nM (reported PD parameter of comparator scenario)", "result": 0.01322, "unit": "µg/mL"}, {"measurement": "IC50 reflected in the PD model", "setting": "[3]; corresponds to 37 nM (in vitro potency ratio scenario)", "result": 0.02224, "unit": "µg/mL"}, {"measurement": "off-target effects", "setting": "[4]", "result": "no off-target effects"}]}]}
